In general, EC50 refers to the concentration that produces a half-maximal response. Higher therefore signals a need for much substance.

In this experiment the target is glucosylceramide synthase (GCS) (Homo sapiens (Human), UniProt Q16739). Nature of the experiment: UDP-Glo glucosylceramide synthase biochemical assay. To be noted: endogenous GCS in Golgi preparations from human A375 malignant melanoma skin cells; C6 ceramide and UDP-glucose substrates; 20 h incubation; UDP detected by luminescence. An excerpt: UDP-Glo™ Glucosylceramide Synthase Biochemical Assay
Sequence of glucosylceramide synthase (GCS) (Q16739 whole entry): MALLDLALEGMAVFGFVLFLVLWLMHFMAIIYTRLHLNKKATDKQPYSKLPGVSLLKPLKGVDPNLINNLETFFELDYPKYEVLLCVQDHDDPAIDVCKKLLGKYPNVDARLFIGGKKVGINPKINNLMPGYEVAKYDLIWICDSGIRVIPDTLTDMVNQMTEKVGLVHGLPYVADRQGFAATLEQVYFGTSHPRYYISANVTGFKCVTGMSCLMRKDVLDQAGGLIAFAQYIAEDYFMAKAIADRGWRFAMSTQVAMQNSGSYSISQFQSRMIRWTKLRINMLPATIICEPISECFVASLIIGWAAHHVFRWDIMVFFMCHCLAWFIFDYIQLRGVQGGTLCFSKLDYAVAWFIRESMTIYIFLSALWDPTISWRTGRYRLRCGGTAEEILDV
A UDP-Glo™ glucosylceramide synthase biochemical assay was utilized to evaluate the effect of test compounds on the activity of endogenous levels of GCS enzyme contained within Golgi preparations isolated from human A375 malignant melanoma skin cells. The UDP-Glo™ glucosylceramide synthase assay uses UDP-Glucose as a nucleotide-glycosyl donor and ceramide as substrate acceptor molecules. In the reaction, glucosylceramide synthase (GCS) transfers glucose from UDP-Glucose to ceramide. Glucosylceramide and UDP are released as products.
Using Promega's UDP-Glo™ Glycosyltransferase assay kit (Promega Corporation, Madison, WI, USA (Promega)), GCS activity was indirectly measured by detecting the amount of UDP produced. An aliquot of GCS enzyme (1.5 μg crude golgi preparation, total protein) and titrated test compound were aliquoted to each well and incubated for 30 minutes at room temperature. […] An equivalent volume of substrate mixture was then added to each well. Following a 20 h incubation at room temperature to allow for GCS turnover of substrate, an equal volume of UDP detection reagent (Promega) was added to each well and incubated for an additional 75 minutes at room temperature to simultaneously convert the accumulated UDP product into ATP and generate light in a luciferase reaction. The generated light was detected using a luminometer. […] luminescence values (RLUs) were normalized to mean “min” and “max” effects, as determined on each plate. “Min” was defined as the mean of the values of the wells treated with vehicle (DMSO) and which represent 0% inhibition; “max” was defined as the mean of the values of the wells treated with a reference inhibitor and which represent the 100% effect. Values for % Emax and EC50 were determined by best-fitting the normalized data to a curve in Activity Base along a four-parameter logistic nonlinear regression (4PL) model (based on the Levenberg-Marquardt algorithm and defined by the equation below): […]
where: n is 4PMin (bottom of the curve); m is 4PMax (top of the curve); i is IP (inflection point of curve); and p is slope. See Levenberg, K., “A Method for the Solution of Certain Problems in Least Squares”, Quart. Appl. Math. 2, (1944), pp 164-168 and Marquardt, D., “An Algorithm for Least Squares Estimation on Nonlinear Parameters”, SIAM J. Appl. Math. 11, (1963) pp 431-441.
Compound `O=C(N[C@H]1CC[C@H](O)CC1)c1cn2cc(Cl)cc(-c3ccccc3OCC(F)(F)F)c2n1` [Compound 24, 6-chloro-N-(trans-4-hydroxycyclohexyl)-8-(2-(2,2,2-trifluoroethoxy)phenyl)imidazo[1,2-a]pyridine-2-carboxamide] registered an EC50 of 0.36 nM.

`CC(C)(NC(=O)c1cn2cccc(-c3ccccc3OCC(F)(F)F)c2n1)C(F)(F)F` [Compound 3, N-(1,1,1-trifluoro-2-methylpropan-2-yl)-8-(2-(2,2,2-trifluoroethoxy)phenyl)imidazo[1,2-a]pyridine-2-carboxamide] came in with an EC50 of 3.1 nM.

Compound `O=C(NC(c1cccnc1)C(F)(F)F)c1cn2cccc(-c3ccccc3OCC(F)(F)F)c2n1` (racemic) [Compound 38, (R and S)-N-(2,2,2-trifluoro-1-(pyridin-3-yl)ethyl)-8-(2-(2,2,2-trifluoroethoxy)phenyl)imidazo[1,2-a]pyridine-2-carboxamide] showed an EC50 of 5.5 nM.

Compound `CC1(CO)COC(c2cn3cc(Cl)cc(-c4ccccc4OCC(F)(F)F)c3n2)=N1` (stereo not drawn) [Compound 73, [2-[6-chloro-8-[2-(2,2,2-trifluoroethoxy)phenyl]imidazo[1,2-a]pyridin-2-yl]-4-methyl-5H-oxazol-4-yl]methanol] yielded an EC50 of 32 nM.

With `CN(CCN1CCCC1)C(=O)c1cn2cccc(-c3ccccc3OCC(F)(F)F)c2n1` [Compound 54, N-methyl-N-(2-(pyrrolidin-1-yl)ethyl)-8-(2-(2,2,2-trifluoroethoxy)phenyl)imidazo[1,2-a]pyridine-2-carboxamide], the EC50 is 3 nM.

Consider `O=C(N[C@H]1CC[C@H](CO)CC1)c1cn2cccc(-c3ccccc3OCC(F)(F)F)c2n1` [Compound 29, N-(trans-4-(hydroxymethyl)cyclohexyl)-8-(2-(2,2,2-trifluoroethoxy)phenyl)imidazo[1,2-a]pyridine-2-carboxamide], for which the EC50 is 2.1 nM.

Take `CC1(NC(=O)c2cn3cc(Cl)cc(-c4ccccc4OCC(F)(F)F)c3n2)CCOC1` (racemic) [Compound 14, (R and S)-6-chloro-N-(3-methyltetrahydrofuran-3-yl)-8-(2-(2,2,2-trifluoroethoxy)phenyl)imidazo[1,2-a]pyridine-2-carboxamide]: a half-maximal response (EC50) required 0.97 nM.

On to `O=C(c1cn2cc(C(F)(F)F)cc(-c3ccccc3OCC(F)(F)F)c2n1)N1CCOC2(COC2)C1` [Compound 51, (2,5-dioxa-8-azaspiro[3.5]nonan-8-yl)(8-(2-(2,2,2-trifluoroethoxy)phenyl)-6-(trifluoromethyl)imidazo[1,2-a]pyridin-2-yl)methanone], for which the EC50 came out at 0.51 nM.

Turning to `CC(C)(NC(=O)c1nc2c(-c3ccccc3OCC(F)(F)F)cccn2c1F)C(F)(F)F` [Compound 33, 3-fluoro-N-(1,1,1-trifluoro-2-methylpropan-2-yl)-8-(2-(2,2,2-trifluoroethoxy)phenyl)imidazo[1,2-a]pyridine-2-carboxamide], the EC50 came out at 14 nM.

In the case of `CC(C)(O)C1(C)COC(c2cn3cc(Cl)cc(-c4ccccc4OCC(F)(F)F)c3n2)=N1` (stereo not drawn) [Compound 78, 2-[2-[6-chloro-8-[2-(2,2,2-trifluoroethoxy)phenyl]imidazo[1,2-a]pyridin-2-yl]-4-methyl-5H-oxazol-4-yl]propan-2-ol], the EC50 amounted to 32 nM. Compared with the last compound, the EC50 is about 2.3-fold higher.

Compound `O=C(NC12CCC(CO)(CC1)CC2)c1cn2cccc(-c3ccccc3OCC(F)(F)F)c2n1` [Compound 18, N-(4-(hydroxymethyl)bicyclo[2.2.2]octan-1-yl)-8-(2-(2,2,2-trifluoroethoxy)phenyl)imidazo[1,2-a]pyridine-2-carboxamide] yielded an EC50 of 2.3 nM. This EC50 is about 14-fold lower than that of the compound before.

In the case of `O=C(c1cn2cccc(-c3ccccc3OCC(F)(F)F)c2n1)N1CC2CC1(CF)C2` [Compound 48, (1-(fluoromethyl)-2-azabicyclo[2.1.1]hexan-2-yl)(8-(2-(2,2,2-trifluoroethoxy)phenyl)imidazo[1,2-a]pyridin-2-yl)methanone], the EC50 amounted to 4.5 nM.

Source of the values: patent publication US20240018140A1, “MODIFIED IMIDAZOPYRIDINES AS GLUCOSYLCERAMIDE SYNTHASE INHIBITORS” (Merck Sharp & Dohme LLC, priority 2020, published 2024).
